Assay results: patent publication US4795743A, “2'-deamino-2'-hydroxyistamycin Bo derivatives of low toxicity” (Zaidan Hojin Biseibutsu Kagaku Kenkyu Kai, priority 1986, dated 1989)
Values after ≈ are worked out from the molar mass of the structure shown. Where two headings read alike, the source gives them in different places.

Key:
[1] = test system: Salmonella enteritidis 1891; test: Antibacterial spectrum, standard serial dilution method; format: cell-based; conditions: Salmonella enterica, Muller-Hinton medium, 37° C., 18 hours, read-out: Minimum Growth Inhibitory Concentration
[2] = test system: Bacillus cereus ATCC 1-702; test: as above; format: cell-based; conditions: read-out: Minimum Growth Inhibitory Concentration
[3] = test system: Pseudomonas aeruguinosa No.12; test: as above; format: cell-based, Pseudomonas aeruginosa; conditions: Muller-Hinton medium, 37° C., 18 hours, read-out: Minimum Growth Inhibitory Concentration
[4] = test system: Micrococcus flavus FDA 16; test: as above; format: cell-based; conditions: read-out: Minimum Growth Inhibitory Concentration
[5] = test system: Pseudomonas aeruguinosa B-13; test: as above; format: cell-based, Pseudomonas aeruginosa; conditions: B13, Muller-Hinton medium, 37° C., 18 hours, read-out: Minimum Growth Inhibitory Concentration
Escherichia coli K-12 = test: as above; format: cell-based; conditions: read-out: Minimum Growth Inhibitory Concentration
[6] = test system: Escherichia coli K-12 C600 R135; test: as above; format: cell-based; conditions: K12C600R135, E. coli K-12 C600 R135, Muller-Hinton medium, 37° C., 18 hours, read-out: Minimum Growth Inhibitory Concentration
[7] = test system: Escherichia coli K-12 LA290 R55; test: as above; format: cell-based; conditions: K12LA290R55, 18 h, read-out: Minimum Growth Inhibitory Concentration
[8] = test system: Pseudomonas aeruguinosa K-Ps 102; test: as above; format: cell-based, Pseudomonas aeruginosa; conditions: KPS102; Pseudomonas aeruguinosa K-Ps 102; Muller-Hinton medium, 37° C., 18 hours; read-out: Minimum Growth Inhibitory Concentration
[9] = test system: Escherichia coli K-12 ML1629; test: as above; format: cell-based; conditions: K12ML1629, E. coli K-12 ML1629, Muller-Hinton medium, 37° C., 18 hours, read-out: Minimum Growth Inhibitory Concentration
[10] = test system: Mycobacterium smegmatis ATCC 607; test: as above; format: cell-based; conditions: Mycolicibacterium smegmatis, read-out: Minimum Growth Inhibitory Concentration
[11] = test system: Pseudomonas aeruguinosa ROS 134/PU21; test: as above; format: cell-based, Pseudomonas aeruginosa; conditions: ROS134/PU21, 18 h, read-out: Minimum Growth Inhibitory Concentration
[12] = test system: Escherichia coli K-12 ML1410; test: as above; format: cell-based; conditions: K12ML1410, 18 h, read-out: Minimum Growth Inhibitory Concentration
Serratia marcescens = test: as above; format: cell-based; conditions: read-out: Minimum Growth Inhibitory Concentration
[13] = test system: Shigella dysernteriae JS11910; test: as above; format: cell-based; conditions: Muller-Hinton medium, 37° C., 18 hours, read-out: Minimum Growth Inhibitory Concentration
Escherichia coli W677 = test: as above; format: cell-based; conditions: read-out: Minimum Growth Inhibitory Concentration
[14] = test system: Klebsiella Pneumoniae PCI 602; test: as above; format: cell-based; conditions: read-out: Minimum Growth Inhibitory Concentration
Escherichia coli NIHJ = test: as above; format: cell-based; conditions: read-out: Minimum Growth Inhibitory Concentration
[15] = test system: Escherichia coli K-12 LA290 R56; test: as above; format: cell-based; conditions: K12LA290R56, 18 h, read-out: Minimum Growth Inhibitory Concentration
[16] = test system: Escherichia coli K-12 LA290 R64; test: as above; format: cell-based; conditions: K12LA290R64, 18 h, read-out: Minimum Growth Inhibitory Concentration
Serratia sp. SOU = test: as above; format: cell-based; conditions: read-out: Minimum Growth Inhibitory Concentration
[17] = test system: Staphylococcus aureus Smith; test: as above; format: cell-based; conditions: read-out: Minimum Growth Inhibitory Concentration
[18] = test system: Escherichia coli K-12 R388; test: as above; format: cell-based; conditions: K12R388, 18 h, read-out: Minimum Growth Inhibitory Concentration
[19] = test system: Pseudomonas aeruguinosa GN315; test: as above; format: cell-based, Pseudomonas aeruginosa; conditions: Pseudomonas aeruguinosa GN315; Muller-Hinton medium, 37° C., 18 hours; read-out: Minimum Growth Inhibitory Concentration
Proteus rettgeri GN466 = test: as above; format: cell-based; conditions: Providencia rettgeri; Proteus rettgeri GN466; Muller-Hinton medium, 37° C., 18 hours; read-out: Minimum Growth Inhibitory Concentration
Providencia sp. Pv16 = test: as above; format: cell-based; conditions: read-out: Minimum Growth Inhibitory Concentration
[20] = test system: Pseudomonas maltophilia GN907; test: as above; format: cell-based; conditions: Stenotrophomonas maltophilia, Muller-Hinton medium, 37° C., 18 hours, read-out: Minimum Growth Inhibitory Concentration
Shigella sonnei = test: as above; format: cell-based; conditions: Muller-Hinton medium, 37° C., 18 hours, read-out: Minimum Growth Inhibitory Concentration
[21] = test system: Staphylococcus aureus Ap 01; test: as above; format: cell-based; conditions: read-out: Minimum Growth Inhibitory Concentration
Salmonella typhi T-63 = test: as above; format: cell-based; conditions: Salmonella enterica, 18 h, read-out: Minimum Growth Inhibitory Concentration
[22] = test system: Staphylococcus aureus 209P; test: Antibacterial spectrum, standard serial dilution method of Japan Society of Chemotherapy; format: cell-based; conditions: read-out: Minimum Growth Inhibitory Concentration
[23] = test system: Shibella flexneri 4b JS11811; test: Antibacterial spectrum, standard serial dilution method; format: cell-based; conditions: 18 h, read-out: Minimum Growth Inhibitory Concentration

Structure (SMILES) | MIC [1] [µg/mL] | MIC [3] [µg/mL] | MIC [5] [µg/mL] | MIC [6] [µg/mL] | MIC [7] [µg/mL] | MIC [8] [µg/mL] | MIC [9] [µg/mL] | MIC [11] [µg/mL] | MIC [12] [µg/mL] | MIC [13] [µg/mL] | MIC [15] [µg/mL] | MIC [16] [µg/mL] | MIC [18] [µg/mL] | MIC [19] [µg/mL] | MIC (Proteus rettgeri GN466) [µg/mL] | MIC [20] [µg/mL] | MIC (Shigella sonnei) [µg/mL] | MIC (Salmonella typhi T-63) [µg/mL] | MIC [23] [µg/mL] | further results
CNCC1CCC(O)C(OC2C(N)CC(O)C(N(C)C(=O)CCN)C2O)O1 (stereo not drawn) [Compound No. 4, 4-N-(β-Alanyl)-2'-deamino-2'-hydroxy-3-O-demethylistamycin Bo] | 3.13 (≈ 8.02 µM) | 12.5 (≈ 32 µM) | 12.5 (≈ 32 µM) | 3.13 (≈ 8.02 µM) | 6.25 (≈ 16 µM) | 25 (≈ 64 µM) | 3.13 (≈ 8.02 µM) | 100 (≈ 256 µM) | 6.25 (≈ 16 µM) | 3.13 (≈ 8.02 µM) | 3.13 (≈ 8.02 µM) | 1.56 (≈ 4 µM) | 1.56 (≈ 4 µM) | 12.5 (≈ 32 µM) | 0.39 (≈ 0.999 µM) | > 100 | 3.13 (≈ 8.02 µM) | 0.78 (≈ 2 µM) | 6.25 (≈ 16 µM) | MIC ([2]; Bacillus cereus, ATCC1, 18 h): 6.25 µg/mL (≈ 16 µM); MIC ([4]; Micrococcus flavus, FDA16, 18 h): 3.13 µg/mL (≈ 8.02 µM); MIC (Escherichia coli K-12; K12, 18 h): 1.56 µg/mL (≈ 4 µM); MIC ([10]; ATCC607, 18 h): 6.25 µg/mL (≈ 16 µM); MIC (Serratia marcescens; 18 h): 3.13 µg/mL (≈ 8.02 µM); MIC (Escherichia coli W677; W677, 18 h): 1.56 µg/mL (≈ 4 µM); MIC ([14]; Klebsiella pneumoniae, 18 h): 3.13 µg/mL (≈ 8.02 µM); MIC (Escherichia coli NIHJ; 18 h): 1.56 µg/mL (≈ 4 µM); MIC (Serratia sp. SOU; Serratia, 18 h): 1.56 µg/mL (≈ 4 µM); MIC ([17]; 18 h): 1.56 µg/mL (≈ 4 µM); MIC (Providencia sp. Pv16; Providencia, SP.PV16, 18 h): 1.56 µg/mL (≈ 4 µM); MIC ([21]; AP01, 18 h): 3.13 µg/mL (≈ 8.02 µM); MIC ([22]; 209P, 18 h): 1.56 µg/mL (≈ 4 µM)
CNCC1CCC(N)C(OC2C(N)CC(OC)C(N(C)C(=O)CN)C2O)O1 (stereo not shown) [Istamycin B, istamycin B] | 3.13 (≈ 8.04 µM) | 25 (≈ 64.2 µM) | > 100 | 12.5 (≈ 32.1 µM) | 3.13 (≈ 8.04 µM) | 25 (≈ 64.2 µM) | 1.56 (≈ 4.01 µM) | > 100 | 3.13 (≈ 8.04 µM) | 3.13 (≈ 8.04 µM) | 0.78 (≈ 2 µM) | 1.56 (≈ 4.01 µM) | 1.56 (≈ 4.01 µM) | 25 (≈ 64.2 µM) | 0.78 (≈ 2 µM) | > 100 | 3.13 (≈ 8.04 µM) | 0.39 (≈ 1 µM) | 3.13 (≈ 8.04 µM) | MIC ([2]; ATCC1, Bacillus cereus ATCC 1-702, Muller-Hinton medium, 37° C., 18 hours): 6.25 µg/mL (≈ 16 µM); MIC ([4]; FDA16, Micrococcus flavus FDA 16, Muller-Hinton medium, 37° C., 18 hours): 25 µg/mL (≈ 64.2 µM); MIC (Escherichia coli K-12; K12, E. coli K-12, Muller-Hinton medium, 37° C., 18 hours): 0.78 µg/mL (≈ 2 µM); MIC ([10]; ATCC607, Mycobacterium smegmatis ATCC 607, Muller-Hinton medium, 37° C., 18 hours): 0.78 µg/mL (≈ 2 µM); MIC (Serratia marcescens; Muller-Hinton medium, 37° C., 18 hours): 6.25 µg/mL (≈ 16 µM); MIC (Escherichia coli W677; E. coli W677, Muller-Hinton medium, 37° C., 18 hours): 0.78 µg/mL (≈ 2 µM); MIC ([14]; Klebsiella Pneumoniae PCI 602, Muller-Hinton medium, 37° C., 18 hours): 1.56 µg/mL (≈ 4.01 µM); MIC (Escherichia coli NIHJ; E. coli NIHJ, Muller-Hinton medium, 37° C., 18 hours): 0.78 µg/mL (≈ 2 µM); MIC (Serratia sp. SOU; Serratia sp. SOU, Muller-Hinton medium, 37° C., 18 hours): 25 µg/mL (≈ 64.2 µM); MIC ([17]; S. aureus Smith, Muller-Hinton medium, 37° C., 18 hours): 0.39 µg/mL (≈ 1 µM); MIC (Providencia sp. Pv16; Providencia sp. Pv16, Muller-Hinton medium, 37° C., 18 hours): 1.56 µg/mL (≈ 4.01 µM); MIC ([21]; AP01, S. aureus Ap 01, Muller-Hinton medium, 37° C., 18 hours): 1.56 µg/mL (≈ 4.01 µM); MIC ([22]; S. aureus 209P, Muller-Hinton medium, 37° C., 18 hours): 0.78 µg/mL (≈ 2 µM)
